Measurements published in patent publication US6737383B1, “Herbicidal oxadiazolidines” (priority 1999, dated 2004).

Legend:
[1] = test system: cocklebur; assay: Test B pre/postemergence cocklebur; type: in vivo, Xanthium strumarium
How it was run: (§1)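 Herbicidal effect was estimated by eye on a ten-point control scale after plants spent twelve to sixteen days in a greenhouse following soil or foliar treatment. Foliar sprays targeted plants at one to four leaves; all doses were formulated in a non-phytotoxic solvent with surfactant.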

[2] = test system: corn; assay: Test B pre/postemergence corn; type: in vivo, Zea mays
How it was run: as §1

[3] = test system: crabgrass; assay: Test B pre/postemergence crabgrass; type: in vivo, Digitaria sanguinalis
How it was run: as §1

[4] = test system: giant foxtail; assay: Test B pre/postemergence giant foxtail; type: in vivo, Setaria faberii
How it was run: as §1

[5] = test system: morningglory; assay: Test B pre/postemergence morningglory; type: in vivo, Ipomoea hederacea
How it was run: as §1

[6] = test system: pigweed; assay: Test B pre/postemergence pigweed; type: in vivo, Amaranthus retroflexus
How it was run: as §1

[7] = test system: rape; assay: Test B pre/postemergence rape; type: in vivo, Brassica napus
How it was run: as §1

[8] = test system: soybean; assay: Test B pre/postemergence soybean; type: in vivo, Glycine max
How it was run: as §1

[9] = test system: sugar beet; assay: Test B pre/postemergence sugar beet; type: in vivo, Beta vulgaris
How it was run: as §1

[10] = test system: velvetleaf; assay: Test B pre/postemergence velvetleaf; type: in vivo, Abutilon theophrasti
How it was run: as §1

[11] = test system: wheat; assay: Test B pre/postemergence wheat; type: in vivo, Triticum aestivum
How it was run: as §1

[12] = test system: wild oat; assay: Test B pre/postemergence wild oat; type: in vivo, Avena fatua
How it was run: as §1

[13] = test system: purple nutsedge; assay: Test B pre/postemergence purple nutsedge; type: in vivo, Cyperus rotundus
How it was run: as §1

[14] = test system: rice; assay: Test B flood test rice; type: in vivo, Oryza sativa
How it was run: (§2)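 Plants were grown to the 2-leaf stage before treatment with test chemical, then held in a greenhouse for twelve to sixteen days. Injury was visually rated against untreated controls on a 0–10 scale, where 0 is no effect and 10 is complete control.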

[15] = test system: smallflower flatsedge; assay: Test B flood test smallflower flatsedge; type: in vivo, Cyperus difformis
How it was run: as §2

[16] = test system: duck salad; assay: Test B flood test duck salad; type: in vivo, Heteranthera limosa
How it was run: as §2

[17] = Postemergence, Rate 250 g/ha, scale 0 to 10
[18] = Postemergence, Rate 500 g/ha, scale of 0 to 10 where 0 is no effect and 10 is complete control
[19] = Preemergence, Rate 62 g/ha, scale 0 to 10 (0 no effect, 10 complete control)
[20] = Preemergence, Rate 125 g/ha, scale of 0 to 10 where 0 is no effect and 10 is complete control
[21] = Preemergence, Rate 250 g/ha, scale 0 to 10, 0 is no effect, 10 is complete control
[22] = Preemergence, Rate 500 g/ha, scale 0 to 10, 0 is no effect, 10 is complete control
[23] = Rate 62 g/ha, Postemergence, scale 0 to 10, 0 no effect, 10 complete control
[24] = Rate 125 g/ha, Postemergence, scale 0 to 10, 0 is no effect, 10 is complete control
[25] = Postemergence block (flood test species), Rate 250 g/ha, scale 0 to 10
[26] = Postemergence section (flood test species), Rate 500 g/ha, scale of 0 to 10 where 0 is no effect and 10 is complete control
[27] = Rate 62 g/ha, Postemergence (flood test), scale 0 to 10, 0 no effect, 10 complete control
[28] = Rate 125 g/ha, Postemergence section (flood test species), scale 0 to 10, 0 is no effect, 10 is complete control

Question: `CC(C)N(C(=O)n1oc(=O)n(CCC#N)c1=O)c1ccccc1` [Compound 436] was tested. Which “Cocklebur plant response rating” value [1, 17] did it give?
Answer: 0

Question: What about the “Cocklebur plant response rating” value [1, 18] of the same compound?
Answer: 0

Question: And the “Plant response rating, Cocklebur” value [1, 19]?
Answer: 0

Question: And the “Plant response rating, Cocklebur” value [1, 20]?
Answer: 0

Question: And the “Cocklebur plant response rating” value [1, 21]?
Answer: 0

Question: And the “Cocklebur plant response rating” value [1, 22]?
Answer: 0

Question: What about the “Cocklebur plant response rating” value [1, 23] of the same compound?
Answer: 0

Question: What about the “Cocklebur plant response rating” value [1, 24] of the same compound?
Answer: 0

Question: And the “Corn plant response rating” value [2, 17]?
Answer: 0

Question: What about the “Corn plant response rating” value [2, 18] of the same compound?
Answer: 5

Question: And the “Plant response rating, Corn” value [2, 19]?
Answer: 0

Question: What about the “Plant response rating, Corn” value [2, 20] of the same compound?
Answer: 0

Question: And the “Corn plant response rating” value [2, 21]?
Answer: 0

Question: What about the “Corn plant response rating” value [2, 22] of the same compound?
Answer: 9

Question: What about the “Corn plant response rating” value [2, 23] of the same compound?
Answer: 0

Question: What about the “Corn plant response rating” value [2, 24] of the same compound?
Answer: 0

Question: And the “Crabgrass plant response rating” value [3, 17]?
Answer: 1

Question: And the “Crabgrass plant response rating” value [3, 18]?
Answer: 9

Question: And the “Plant response rating, Crabgrass” value [3, 19]?
Answer: 0

Question: And the “Plant response rating, Crabgrass” value [3, 20]?
Answer: 0

Question: And the “Crabgrass plant response rating” value [3, 21]?
Answer: 0

Question: And the “Crabgrass plant response rating” value [3, 22]?
Answer: 10

Question: What about the “Crabgrass plant response rating” value [3, 23] of the same compound?
Answer: 0

Question: And the “Crabgrass plant response rating” value [3, 24]?
Answer: 0

Question: And the “Giant foxtail plant response rating” value [4, 17]?
Answer: 1

Question: And the “Giant foxtail plant response rating” value [4, 18]?
Answer: 9

Question: What about the “Plant response rating, Giant foxtail” value [4, 19] of the same compound?
Answer: 0

Question: What about the “Plant response rating, Giant foxtail” value [4, 20] of the same compound?
Answer: 0

Question: And the “Giant foxtail plant response rating” value [4, 21]?
Answer: 0

Question: What about the “Giant foxtail plant response rating” value [4, 22] of the same compound?
Answer: 10

Question: What about the “Giant foxtail plant response rating” value [4, 23] of the same compound?
Answer: 0

Question: What about the “Giant foxtail plant response rating” value [4, 24] of the same compound?
Answer: 0

Question: And the “Morningglory plant response rating” value [5, 17]?
Answer: 2

Question: What about the “Morningglory plant response rating” value [5, 18] of the same compound?
Answer: 10

Question: And the “Plant response rating, Morningglory” value [5, 19]?
Answer: 0

Question: What about the “Plant response rating, Morningglory” value [5, 20] of the same compound?
Answer: 0

Question: What about the “Morningglory plant response rating” value [5, 21] of the same compound?
Answer: 0

Question: What about the “Morningglory plant response rating” value [5, 22] of the same compound?
Answer: 1

Question: What about the “Morningglory plant response rating” value [5, 23] of the same compound?
Answer: 0

Question: And the “Morningglory plant response rating” value [5, 24]?
Answer: 0

Question: And the “Redroot pigweed plant response rating” value [6, 17]?
Answer: 0

Question: And the “Redroot pigweed plant response rating” value [6, 18]?
Answer: 7

Question: And the “Plant response rating, Redroot pigweed” value [6, 19]?
Answer: 0

Question: What about the “Plant response rating, Redroot pigweed” value [6, 20] of the same compound?
Answer: 0

Question: And the “Redroot pigweed plant response rating” value [6, 21]?
Answer: 0

Question: And the “Redroot pigweed plant response rating” value [6, 22]?
Answer: 10

Question: What about the “Redroot pigweed plant response rating” value [6, 23] of the same compound?
Answer: 0

Question: And the “Redroot pigweed plant response rating” value [6, 24]?
Answer: 0

Question: What about the “Rape plant response rating” value [7, 17] of the same compound?
Answer: 0

Question: And the “Rape plant response rating” value [7, 18]?
Answer: 4

Question: What about the “Plant response rating, Rape” value [7, 19] of the same compound?
Answer: 0

Question: And the “Plant response rating, Rape” value [7, 20]?
Answer: 0

Question: What about the “Rape plant response rating” value [7, 21] of the same compound?
Answer: 0

Question: What about the “Rape plant response rating” value [7, 22] of the same compound?
Answer: 10

Question: And the “Rape plant response rating” value [7, 23]?
Answer: 0

Question: What about the “Rape plant response rating” value [7, 24] of the same compound?
Answer: 0

Question: What about the “Soybean plant response rating” value [8, 17] of the same compound?
Answer: 0

Question: And the “Soybean plant response rating” value [8, 18]?
Answer: 4

Question: What about the “Plant response rating, Soybean” value [8, 19] of the same compound?
Answer: 0

Question: What about the “Plant response rating, Soybean” value [8, 20] of the same compound?
Answer: 0

Question: And the “Soybean plant response rating” value [8, 21]?
Answer: 0

Question: And the “Soybean plant response rating” value [8, 22]?
Answer: 0

Question: And the “Soybean plant response rating” value [8, 23]?
Answer: 0

Question: And the “Soybean plant response rating” value [8, 24]?
Answer: 0

Question: And the “Sugarbeets plant response rating” value [9, 17]?
Answer: 0

Question: And the “Sugarbeets plant response rating” value [9, 18]?
Answer: 0

Question: And the “Plant response rating, Sugarbeets” value [9, 19]?
Answer: 0

Question: And the “Plant response rating, Sugarbeets” value [9, 20]?
Answer: 0

Question: And the “Sugarbeets plant response rating” value [9, 21]?
Answer: 0

Question: What about the “Sugarbeets plant response rating” value [9, 22] of the same compound?
Answer: 5

Question: And the “Sugarbeets plant response rating” value [9, 23]?
Answer: 0

Question: And the “Sugarbeets plant response rating” value [9, 24]?
Answer: 0

Question: What about the “Velvetleaf plant response rating” value [10, 17] of the same compound?
Answer: 0

Question: And the “Velvetleaf plant response rating” value [10, 18]?
Answer: 3

Question: What about the “Plant response rating, Velvetleaf” value [10, 19] of the same compound?
Answer: 0

Question: What about the “Plant response rating, Velvetleaf” value [10, 20] of the same compound?
Answer: 0

Question: And the “Velvetleaf plant response rating” value [10, 21]?
Answer: 0

Question: And the “Velvetleaf plant response rating” value [10, 22]?
Answer: 7

Question: And the “Velvetleaf plant response rating” value [10, 23]?
Answer: 0

Question: And the “Velvetleaf plant response rating” value [10, 24]?
Answer: 0

Question: What about the “Wheat plant response rating” value [11, 17] of the same compound?
Answer: 0

Question: What about the “Wheat plant response rating” value [11, 18] of the same compound?
Answer: 7

Question: What about the “Plant response rating, Wheat” value [11, 19] of the same compound?
Answer: 0

Question: And the “Plant response rating, Wheat” value [11, 20]?
Answer: 0

Question: And the “Wheat plant response rating” value [11, 21]?
Answer: 0

Question: What about the “Wheat plant response rating” value [11, 22] of the same compound?
Answer: 5

Question: And the “Wheat plant response rating” value [11, 23]?
Answer: 0

Question: What about the “Wheat plant response rating” value [11, 24] of the same compound?
Answer: 0

Question: What about the “Wild oats plant response rating” value [12, 17] of the same compound?
Answer: 0

Question: What about the “Wild oats plant response rating” value [12, 18] of the same compound?
Answer: 3

Question: And the “Plant response rating, Wild oats” value [12, 19]?
Answer: 0

Question: What about the “Plant response rating, Wild oats” value [12, 20] of the same compound?
Answer: 0

Question: And the “Wild oats plant response rating” value [12, 21]?
Answer: 0

Question: And the “Wild oats plant response rating” value [12, 22]?
Answer: 10

Question: What about the “Wild oats plant response rating” value [12, 23] of the same compound?
Answer: 0

Question: What about the “Wild oats plant response rating” value [12, 24] of the same compound?
Answer: 0

Question: What about the “Nutsedge plant response rating” value [13, 17] of the same compound?
Answer: 0

Question: What about the “Nutsedge plant response rating” value [13, 18] of the same compound?
Answer: 3

Question: And the “Plant response rating, Nutsedge” value [13, 19]?
Answer: 0

Question: What about the “Plant response rating, Nutsedge” value [13, 20] of the same compound?
Answer: 0

Question: What about the “Nutsedge plant response rating” value [13, 21] of the same compound?
Answer: 0

Question: What about the “Nutsedge plant response rating” value [13, 22] of the same compound?
Answer: 5

Question: What about the “Nutsedge plant response rating” value [13, 23] of the same compound?
Answer: 0

Question: And the “Nutsedge plant response rating” value [13, 24]?
Answer: 0

Question: What about the “Rice plant response rating” value [14, 25] of the same compound?
Answer: 0

Question: What about the “Rice plant response rating” value [14, 26] of the same compound?
Answer: 0

Question: What about the “Rice plant response rating” value [14, 27] of the same compound?
Answer: 0

Question: And the “Rice plant response rating” value [14, 28]?
Answer: 0

Question: What about the “S. Flatsedge plant response rating” value [15, 25] of the same compound?
Answer: 0

Question: What about the “S. Flatsedge plant response rating” value [15, 26] of the same compound?
Answer: 0

Question: And the “S. Flatsedge plant response rating” value [15, 27]?
Answer: 0

Question: What about the “S. Flatsedge plant response rating” value [15, 28] of the same compound?
Answer: 0

Question: And the “Ducksalad plant response rating” value [16, 25]?
Answer: 0

Question: And the “Ducksalad plant response rating” value [16, 26]?
Answer: 0

Question: What about the “Ducksalad plant response rating” value [16, 27] of the same compound?
Answer: 0

Question: What about the “Ducksalad plant response rating” value [16, 28] of the same compound?
Answer: 0
